Measurements from article PMC10645073, “Interaction of gallium, indium and vanadyl diacetylcurcumin complexes with lysozyme: mechanistic aspects and evaluation of antiamyloidogenic activity” (Royal Society Open Science, 2023).

Legend:
[1] = tested on: mouse lymphoma cells; parameters: method as in PMID 16171869; settings: read-out: IC50 cytotoxicity; cited from earlier work
[2] = biological target: T1, hen egg white lysozyme (HEWL) (Gallus gallus, UniProt P00698); experiment: Intrinsic fluorescence quenching of HEWL (Stern-Volmer, double logarithmic and van't Hoff analysis); type: binding; settings: for KSV (Stern-Volmer quenching constant): HEWL 3 µM; for kq (bimolecular quenching rate constant): kq = KSV/τ0, τ0 10^−8 s
T1 construct: whose 129 amino acid residues are linked together by four disulfide bridges to form a single polypeptide chain; purchased Sigma-Aldrich L6876; host or cells: hen egg white (natural source, per the protein's name)
Protocol: The intrinsic fluorescence spectra of HEWL (3 µM) in the absence and presence of Ga(DAC)3, In(DAC)3 and VO(DAC)2 complexes were collected using a Varian Cary Eclipse fluorescence spectrophotometer equipped with a 10 mm quartz cell by adjusting the excitation wavelength to 295 nm and setting the width of both excitation and emission slits at 5 nm. After adding the mentioned concentrations of the metal complexes of diacetylcurcumin to HEWL solution, the samples were scanned in the wavelength range of 300–500 nm. Corrections were made for the inner filter effect on the fluorescence spectra according to the following equation: Fcor=Fobs×10^(Aex+Aem)/2, where Fcor is corrected fluorescence intensity, Fobs is the observed (uncorrected) fluorescence intensity, Aex is the absorbance at the fluorescence excitation wavelength and Aem is the absorbance at the selected fluorescence emission wavelength.
The fluorescence quenching process of HEWL in the presence of three metal complexes of diacetylcurcumin can be quantified according to the well-known Stern-Volmer equation:3.1 F0/F=1+KSV[Q]=1+kqτ0[Q],
where F0 and F represent the intrinsic emission intensities of HEWL fluorophores, respectively, in the absence and presence of the metal complexes of diacetylcurcumin, and [Q] is the molar concentration of quencher. KSV, kq and τ0 denote the Stern-Volmer quenching constant, bimolecular quenching rate constant, and the average lifetime of fluorophore without quencher, respectively. The value of KSV, as a parameter of the sensitivity of the fluorophore to a quencher, can be estimated from the slope of the linear plot of F0/F as a function of [Q] (figure 2d,e,f; electronic supplementary material, figure S1). To obtain more accurate quantification of fluorescence data, the total area of the emission fluorescence peaks (S0 and S) was applied instead of the emission fluorescence intensities (F0 and F). The fluorescence quenching phenomenon can be generally divided into two distinct classes: static quenching and dynamic quenching. Owing to the reciprocal and direct correlations between the KSV parameter and temperature, respectively, for static and dynamic quenching, the observed trend in the KSV value versus temperature can be used to distinguish these mechanisms from each other. In dynamic quenching, an increase in temperature leads to faster diffusion of molecules by which weakly bound nonfluorescent complexes are further dissociated, and the value of KSV increases. From the data recorded in table 1, it can be seen that the KSV value of HEWL/Ga(DAC)3 and HEWL/In(DAC)3 systems decreases as temperature increases, while it increases with increasing temperature for the HEWL/VO(DAC)2 system. […] Considering a lifetime value of 10^−8 s for the native fluorophores, [27] the equation kq = KSV/τ0 gives the kq values greater than the diffusion-limited quenching value of 2.0 × 10 ^+ 10 M^−1 s^−1 for all systems.
Assuming that all the binding sites of HEWL are identical and independent and an equilibrium interaction is established between HEWL and each of the metal complexes of diacetylcurcumin, the fluorescence quenching process can be further analysed by the following double logarithmic equation:3.2 log(F0−F/F)=logKb+nlog[Q], where Kb and n represent the binding constant and number of binding sites on each HEWL molecule, respectively. Plotting log[(F0 − F)/F] versus log[Q] produces a straight line whose slope and intercept can be used respectively to estimate the values of n and Kb (electronic supplementary material, figures S2A, S2B, S2C and S3). […] In other words, the resulting bioconjugates are the product of the interaction between HEWL and the metal complexes of diacetylcurcumin with a 1 : 1 stoichiometry. […]

[3] = biological target: T1, hen egg white lysozyme (HEWL); experiment: Synchronous fluorescence spectroscopy of HEWL; type: binding; settings: Δλ = 60 nm
Protocol: To obtain synchronous fluorescence spectra, simultaneous scanning of excitation and emission monochromators was performed in such a way as to maintain a constant wavelength interval between them. The changes in the molecular microenvironment of tyrosine and tryptophan residues of HEWL were monitored by fixing the wavelength interval (Δλ = λem − λex) individually at 15 and 60 nm, respectively. The concentrations of HEWL and three metal complexes of diacetylcurcumin were the same as those mentioned for the intrinsic fluorescence spectroscopy.
To investigate the effect of the metal complexes of diacetylcurcumin on the conformation of tyrosine and tryptophan residues of HEWL, synchronous fluorescence spectra of HEWL were recorded alone and in the presence of the metal complexes (electronic supplementary material, figure S5). By fixing the Δλ value, i.e. the difference between excitation and emission wavelengths, at 15 and 60 nm, synchronous fluorescence spectroscopy provides useful information on the microenvironmental changes of tyrosine and tryptophan residues of proteins, respectively. As shown in the electronic supplementary material, figure S5, all three metal complexes of diacetylcurcumin strongly quench the emission fluorescence of HEWL at both 15 and 60 nm. […] At Δλ = 15 nm, no shift in the emission maximum of HEWL is observed, whereas at Δλ = 60 nm, a 2 nm blue shift is observed in the emission spectrum of tryptophan residues of the protein after the interaction with the metal complexes of diacetylcurcumin except for the VO(DAC)2 complex. […] Overall, it can be concluded that the formation of HEWL/metal complex bioconjugates is associated with the binding of three metal complexes of diacetylcurcumin to both tyrosine and tryptophan residues in which the conformational changes can occur only around the tryptophan residues of the protein. It should be noted that the reduction in the polarity of the microregions surrounding tryptophan residues of the protein has already been observed by the intrinsic emission fluorescence titrations (see §3.1.1.).

[4] = tested on: Aβ42; settings: copper-induced Aβ42 cross-linking; cited from earlier work

COc1cc(C=CC(=O)C=C([O-])C=Cc2ccc(OC(C)=O)c(OC)c2)ccc1OC(C)=O.COc1cc(C=CC(=O)C=C([O-])C=Cc2ccc(OC(C)=O)c(OC)c2)ccc1OC(C)=O.COc1cc(C=CC(=O)C=C([O-])C=Cc2ccc(OC(C)=O)c(OC)c2)ccc1OC(C)=O.[Ga+3] [Ga(DAC)3, gallium diacetylcurcumin]
IC50 [1]: 25 to 30 µM
n (number of binding sites on each HEWL molecule) ([2]; T 293 K): (0.92 ± 0.02)
ΔG^0 (Gibbs free energy change of binding) ([2]; T 293 K): -21.26 ± 0.58 kJ/mol
KSV (Stern-Volmer quenching constant) ([2]; T 293 K): (1.46 ± 0.02) × 10^+4 M^−1
kq (bimolecular quenching rate constant) ([2]; T 293 K): (1.46 ± 0.02) × 10^+12 M^−1 s^−1
n (number of binding sites on each HEWL molecule) ([2]; T 303 K): (0.80 ± 0.02)
ΔG^0 (Gibbs free energy change of binding) ([2]; T 303 K): -21.16 ± 0.58 kJ/mol
KSV (Stern-Volmer quenching constant) ([2]; T 303 K): (1.30 ± 0.01) × 10^+4 M^−1
kq (bimolecular quenching rate constant) ([2]; T 303 K): (1.30 ± 0.01) × 10^+12 M^−1 s^−1
n (number of binding sites on each HEWL molecule) ([2]; T 308 K): (0.89 ± 0.02)
ΔG^0 (Gibbs free energy change of binding) ([2]; T 308 K): -21.11 ± 0.58 kJ/mol
KSV (Stern-Volmer quenching constant) ([2]; T 308 K): (1.25 ± 0.01) × 10^+4 M^−1
kq (bimolecular quenching rate constant) ([2]; T 308 K): (1.25 ± 0.01) × 10^+12 M^−1 s^−1
blue shift of HEWL emission maximum on quenching ([2]; excitation 295 nm, emission maximum 345 nm): 4 nm
fluorescence quenching mechanism ([2]; from KSV versus temperature and kq): static mechanism
main forces / modes of interaction stabilizing the bioconjugate ([2]; from signs of ΔH^0 and ΔS^0): van der Waals interactions and hydrogen bonds
binding constant, order of magnitude ([2]; summary of table 1): 10^+3 M^−1
ΔH^0 (enthalpy change of binding) ([2]; van't Hoff plot over 293–308 K): -24.34 ± 0.17 kJ/mol
ΔS^0 (entropy change of binding) ([2]; van't Hoff plot over 293–308 K): −10.50 ± 0.55 J mol^−1 K^−1
microenvironment of tryptophan residues of HEWL [3]: more hydrophobic

COc1cc(C=CC(=O)CC(=O)C=Cc2ccc(O)c(OC)c2)ccc1O [curcumin, 1,7-bis(4-hydroxy-3-methoxyphenyl)-1,6-heptadiene-3,5-dione]
IC50 [1]: 25 to 30 µM

CRANAD-17
effect on Aβ amyloid formation [4]: considerably reduces Aβ amyloid formation
